Key:
[1] = test system: 92.1 uveal melanoma cell line (GNAQ mutation); experiment: Proliferation measurement by xCELLigence; format: cell-based, human; settings: 92.1 cells, 0.5 μM per compound, 6 days
Experimental: (§1) 92.1 and OMM-1 uveal melanoma cell lines were cultured in Roswell Park Memorial Institute medium (RPMI 1640) (American Type Culture Collection (ATCC #30-2001)) supplemented with 10% fetal bovine serum and incubated at 37° C./5% carbon dioxide.
(§2) Compound stocks of 3-(1H-indol-3-yl)-4-[2-(4-methyl-piperazin-1-yl)-quinazolin-4-yl]-1H-pyrrole-2,5-dione, hereafter AEB071, and of 6-(4-bromo-2-fluorophenylamino)-7-fluoro-3-methyl-3H-benzoimidazole-5-carboxylic acid (2-hydroxyethoxy)-amide, hereafter COMPOUND B, were prepared in dimethylsulfoxide (DMSO) at a final concentration of 10 mM.
(§3) Growth of uveal cells was continuously monitored with the xCELLigence real-time cell analyzer. E-plates (Roche #05 232 368 001) were incubated with cells added at a final concentration of 3000 cells per 100 μl per well. Impedance was measured every 2 hours for 24 hours. […] Impedance was measured every 2 hours over 7 days. Data was normalized to day 0 prior to compound addition.
(§4) The effect of 3-(1H-indol-3-yl)-4-[2-(4-methyl-piperazin-1-yl)-quinazolin-4-yl]-1H-pyrrole-2,5-dione (COMPOUND A) and 6-(4-bromo-2-fluorophenylamino)-7-fluoro-3-methyl-3H-benzoimidazole-5-carboxylic acid (2-hydroxyethoxy)-amide (COMPOUND B) on uveal melanoma proliferation in vitro is shown (FIG. 1).

[2] = test system: OMM1 uveal melanoma cell line (GNA11 mutation); experiment: Proliferation measurement by xCELLigence; format: cell-based; settings: OMM1 cells, 0.5 μM per compound, 6 days
Experimental: as §1, §2, §3, §4

[3] = test system: 92.1 uveal melanoma cell line; experiment: Cell proliferation in combination dose matrix (Cell Titer Glo, Chalice); format: cell-based, human; settings: 92.1 cells; for anti-proliferative response in dose matrix: 0.039 μM to 10 μM; for inhibition at 0.16 µM: Homo sapiens, 0.16 μM of each agent, 144 hours, Cell Titer Glo, read-out: growth inhibition (FIG. 2, top panel)
Experimental: Cells were seeded at a density of 3000 cells per 100 μl of medium per well in 96-well plates (Costar #3904) and incubated overnight prior to compound addition. Compound stock was freshly prepared in the appropriate culture medium and manually added to the plates by electronic multichannel pipette in three replicates. Cells were treated with compound alone or with a combination of AEB071 and COMPOUND B diluted 1:2 for a ten point dilution ranging from 0.039 μM to 10 μM. The viability of cells was assessed at the time of compound addition and after 144 hours of treatment by quantification of cellular ATP levels via Cell Titer Glo (Promega #G7571) according to the manufacturer's protocol. Plates were read on a luminescence plate reader (Victor X4, Perkin Elmer). Fractional inhibition of growth was calculated using XLfit and normalized to no compound wells. For growth inhibition, day 0 values were subtracted before calculating inhibition. Data was analyzed by Chalice software
(http://chalice.zalicus.com/documentation/analyzer/index.jsp) to calculate growth inhibition, inhibition and HSA excess.
FIG. 2 provides a closer look at the patterns of synergy between the two agents in the 92.1 cell line. The dose matrix between the two agents is shown; the effect on cell growth relative to untreated cells is shown in the top panel, the excess inhibition (HSA) in the center panel and the growth inhibition relative to day zero normalization is shown in the bottom panel. Methods of calculations for growth inhibition, inhibition and HSA excess are known in the art.
Inhibition and excess inhibition values for all dose combinations can be seen in FIG. 2. The growth rate of the cells during the […] assay was taken into account for the calculation of growth inhibition percent shown in FIG. 2, bottom panel. 100% indicated stasis, meaning the cells had neither grown nor died during the course of the assay, values in excess of 100 indicate death, 200 being complete cell death, and values below 100 indication growth from the start of the assay to the day 3 end point.

[4] = test system: pERK1/2; experiment: Protein immunoblot following drug treatment of uveal melanoma cell lines; format: cell-based, human; settings: 92.1 and OMM-1 cells
Experimental: (§5) Uveal melanoma cells were incubated with 0.5 μM AEB071, 0.5 μM COMPOUND B, both compounds or DMSO alone. Cells were lysed after 2, 4, 8, 24 or 48 hours of treatment in M-PER mammalian protein extraction buffer containing PhosStop Phosphatase inhibitor cocktail tablet (Roche Diagnostics #04 906 837 001) and Complete Protease Inhibitor cocktail tablet (Roche Diagnostics #11 836 145 001). Proteins were separated on a 4-12% Bis-Tris NuPAGE SDS gel (Invitrogen #WG1403Bx10) and subsequently transferred to a nitrocellulose membrane using a dry blotting system (Invitrogen iBLOT). Proteins were detected with 1:1000 dilutions of anti-p44/42 MAPK (Cell Signaling Technologies #4377), anti-pMARCKS (Cell Signaling Technologies #2741), anti-pMEK1/2 (Cell Signaling Technologies #9121) and anti-Beta Actin (Ambion#AM4202). Beta actin was detected using the appropriate secondary antibody and an infrared dye detection system (Odyssey IRDye, LI-COR) according to the manufacturer's protocol. All other proteins were detected using an anti-rabbit-HRP secondary antibody and developed with SuperSignal West Dura Chemiluminescent Substrate (Thermo Scientific #34076) on a Syngene imaging system.
(§6) The biochemical effect of these agents was assessed following treatment with 0.5 μM AEBO071, 0.5 μM COMPOUND B or 0.5 μM of each agent together in the uveal melanoma cell lines 92.1 and OMM-1. The level of pMARCKS was attenuated (FIG. 3). […] The combination of AEB071 and COMPOUND B suppressed pathway components to a greater magnitude and duration compared to either single agent.

[5] = test system: pMEK1/2; experiment: as above; format: cell-based, human; settings: 92.1 and OMM-1 cells, 0.5 μM per agent, over time, clearly observed at 48 hours
Experimental: as §5, §6

[6] = test system: 92.1 human uveal melanoma xenograft (GNAQ mutation); experiment: In vivo activity in the 92.1 human uveal melanoma nude mouse xenograft model
Experimental: NVP-AEB071 (also referred to as AEB071) (acetate salt, 87.96% free base) powder was added to 20% polyethyleneglycol 400 (PEG400): 4.5% 0.1M HCl: 75.5% of 5% dextrose in water (D5W), designated as Vehicle 1, and stirred to obtain a clear red solution. NVP-COMPOUND B (also referred to as COMPOUND B) was formulated as a homogenous suspension in 1% carboxymethyl cellulose: 0.5% Tween® 80 in deionized water. A fresh suspension was prepared once per week for each compound and stored at 4° C.
The animals were fed ad libitum water (reverse osmosis, 1 ppm Cl) and NIH 31 Modified and Irradiated Lab Diet® consisting of 18.0% crude protein, 5.0% crude fat, and 5.0% crude fiber. The mice were housed on irradiated Enrich-O'Cobs™ Laboratory Animal Bedding in static microisolators on a 12-hour light cycle at 20-22° C. (68-72° F.) and 40-60% humidity. DRS-NC specifically complies with the recommendations of the Guide for Care and Use of Laboratory Animals with respect to restraint, husbandry, surgical procedures, feed and fluid regulation, and veterinary care. The animal program at DRS-NC is accredited by the Association for Assessment and Accreditation of Laboratory Animal Care (AAALAC) International, which assures compliance with accepted standards for the care and use of laboratory animals.
The 92.1 uveal melanoma cells were harvested during exponential growth, and re-suspended in cold PBS (phosphate buffered saline) with 50% Matrigel™ (BD Biosciences). Each mouse was inoculated subcutaneously in the right flank with 5×10^6 cells (0.2 mL of cell suspension). Tumors were calipered in two dimensions to monitor growth as their mean volume approached the desired 100-150 mm^3 range. Tumor size, in mm^3, was calculated from: Tumor Volume=(w^2×l)/2 where w=width and l=length, in mm, of the tumor. Tumor weight could be estimated with the assumption that 1 mg was equivalent to 1 mm^3 of tumor volume. Twelve days after tumor cell implantation, on Day 1 (D1) of the study, animals with individual tumor volumes of 108-256 mm^3 were sorted into six groups (n=10/group) with group mean tumor volumes of 153-159 mm^3.
AEB071 was administered at 91 mg/kg three times daily (TID) dosing for 21 days. Efficacy was determined from tumor growth inhibition on day 17, the last day with all mice on the study. The activity was calculated at tumor/control (T/C), the percent mean tumor volume change from day 1 to day 17 in drug treated mice (ΔT) versus vehicle treated mice, or as a T/T0, the percent reduction in the group mean tumor volume from day 1. […] Addition of COMPOUND B dosed twice daily at 3.5 mg/kg to the AEB071 regimen yielded a −22% T−T0 (p<0.001 median activity, but not significant compared to AEB071 alone). COMPOUND B had no activity in its own right with a T/C of 84%.
Mice were dosed for 21 days, then treatment ceased and tumor outgrowth was monitored. […] Tumor growth delay was not calculated because two or more tumors per group became static after an initial growth period, but the trend of tumor outgrowth rate indicated the AEB071 plus COMPOUND B combination tumors grew out slower than AEB071 single agent, COMPOUND B single agent treated tumors were not monitored due to lack of efficacy.
The effectiveness of the combination increased in a dose dependent manner, with increasing AEB071 dose in combination with COMPOUND B yielding a greater magnitude of response. AEB071 was administered at […] and 22.74 mg/kg, (equivalent to 80, 40 and 20 mg/kg free base) with three times daily dosing (TID) for 21 days in combination with COMPOUND B at 3.5 mg/kg with twice daily dosing in the 92.1 human uveal melanoma nude mouse xenograft model. Efficacy was determined from tumor growth inhibition on day 22. The activity was calculated at tumor/control (T/C), the percent mean tumor volume change from day 1 to day 22 in drug treated mice (ΔT) versus vehicle treated mice, or as a T/T0, the percent reduction in the group mean tumor volume from day 1. […]

[7] = test system: pMARCKS; experiment: Protein immunoblot following drug treatment of uveal melanoma cell lines; format: cell-based, human; settings: 92.1 and OMM-1 cells, 0.5 μM per agent, 2-48 hours
Experimental: as §5, with “system. The biochemical effect of these agents was assessed following treatment with 0.5 μM AEBO071, 0.5 μM COMPOUND B or 0.5 μM of each agent together in the uveal melanoma cell lines 92.1 and OMM-1. […]” for “system.”

`Cn1cnc2c(F)c(Nc3ccc(Br)cc3F)c(C(=O)NOCCO)cc21` [COMPOUND B, 6-(4-bromo-2-fluorophenylamino)-7-fluoro-3-methyl-3H-benzoimidazole-5-carboxylic acid (2-hydroxyethoxy)-amide] was tested, and the “effect on growth of uveal melanoma cell line (xCELLigence)” value (shortened to “effect on growth”) [1] was “modest effect”, the “effect on growth” value [2] was “modest effect” and the “anti-proliferative response in dose matrix” value [3] was “active”. The inhibition at 0.16 µM [3] was 57%, the pERK1/2 levels ([4]; 0.5 μM per agent, seen at 2 hrs, time course 2-48 hours) was “reduction in pERK1/2 levels” and the “pERK1/2 expression by 24 hours” value ([4]; 0.5 μM, 24 hours) was “beginning to return”. The pMEK1/2 expression [5] was “induction of pMEK1/2 expression”, the “T/C (tumor/control)” value ([6]; COMPOUND B 3.5 mg/kg twice daily, day 17) was 84% and the “T/C (tumor/control)” value ([6]; COMPOUND B 3.5 mg/kg twice daily, day 22) was 56%.
`CN1CCN(c2nc(C3=C(c4c[nH]c5ccccc45)C(=O)NC3=O)c3ccccc3n2)CC1` [AEB071, 3-(1H-indol-3-yl)-4-[2-(4-methyl-piperazin-1-yl)-quinazolin-4-yl]-1H-pyrrole-2,5-dione] was tested, and the “effect on growth” value [1] was “delayed cell growth”, the “effect on growth” value [2] was “delayed cell growth” and the “anti-proliferative response in dose matrix” value [3] was “active”. For the same molecule, the inhibition at 0.16 µM [3] was 19%, the “level of pMARCKS” value [7] was “attenuated” and the “mean tumor response during the dosing period” value ([6]; 21 days dosing (FIG. 5)) was “near complete mean tumor stasis”. For the same molecule, the “T/C (tumor/control)” value ([6]; AEB071 22.7 mg/kg (20 mg/kg free base) TID for 21 days, day 22, non-significant) was 92%, the “T/C (tumor/control)” value ([6]; AEB071 45.5 mg/kg (40 mg/kg free base) TID for 21 days, day 22, non-significant) was 52% and the “T/C (tumor/control)” value ([6]; AEB071 90.95 mg/kg (80 mg/kg free base) TID for 21 days, day 22, p<0.05) was 18%. The “T/C (tumor/control)” value ([6]; AEB071 (acetate salt) 91 mg/kg TID for 21 days, day 17, p<0.01) was 3% and the “tumor progression after the dosing period” value ([6]; two weeks following the 21 day dosing period, followed >70 days (FIG. 5)) was “progressed at the control pace”.
